Key:
Type in all cases: cell-based, mouse
MEFs from OG mice [1] = experiment: Screen for small molecules that facilitate late reprogramming (DOX-inducible Oct4 plus VC6T)
Method: To identify small molecules that facilitate late reprogramming, a doxycycline (DOX)-inducible Oct4 expression screening system was used (Li, et al., Cell Res. 21:196-204 (2011)).
MEFs from OG mice were plated as described above and infected with Fu-tet-hOct4 and FUdeltaGW-rtTA lentiviruses. The induction protocol was carried out as described above.
After infection, the culture medium was replaced with LIF-free ESC culture medium containing VC6T (VPA, CHIR99021, 616452, Tranylcypromine) plus DOX (1 μg/ml). Alternatively, MEFs harboring DOX-inducible Oct4 from Tet-On POU5F1 mouse strain B6; 129-Gt(ROSA)26Sor^tm1(rTA*M2)Jae COl1a1^tm2(tetO-Pou5f1)Jae/J were used in this screen (Li, et al., Cell Res., 21:196-204 (2011)). These two DOX-inducible systems were only used in this screen, but not in complete chemical reprogramming. Individual chemicals from small-molecule libraries were added to each well. Small molecules were added at different culture time points. 5-aza-C (5-Azacytidine) and DZNep were added from day 8. The medium and chemicals were changed every 4 days; DOX was added only for the first 4-8 days. Chemical treatments were continued for 16-24 days or until GFP-positive colonies appeared. Primary hits were selected for further confirmation and optimization. CiPSC colonies were counted on day 44. […]

MEFs = experiment: CiPSC induction by small-molecule combinations, primary CiPSC colonies counted; conditions: for replacement of DZNep in CiPSC generation: in combination with VC6TF
Method: The initial cells (MEFs, MNFs, MAFs or ADSCs) were seeded at a density of 50,000 cells per well of a 6-well plate or 300,000 cells per 100 mm dish. On the next day (day 0), the original medium was replaced with chemical reprogramming medium containing the small-molecule combinations. The small-molecule combinations-containing medium was changed every 4 days. On day 12, these cells were washed in PBS and digested with 0.25% Trypsin-EDTA (Invitrogen) at 37° C. for 3-5 min. After neutralization, the cell clumps were dissociated into single cells by thorough pipetting. The cells were harvested (300,000-1,000,000 cells per well of a 6-well plate) and replated at a density of 300,000-500,000 cells per well of a 6-well plate in the chemical reprogramming medium containing the small-molecule combinations. DZNep was added to the cell cultures on day 16 or day 20. On day 28-36, the small-molecule combinations including DZNep were removed. Meanwhile, the chemical reprogramming medium was replaced with 2i-medium. After another 8-12 days, 2i-competent, ESC-like and GFP-positive colonies were counted as primary CiPSC colonies. For CiPSC induction from wild-type cells without OG reporter, 2i-competent and ESC-like colonies were counted as primary CiPSC colonies. These CiPSC colonies were picked up for expansion and characterization. Alternatively, CiPSCs could be induced without replating on day 12.

Oct4 promoter [2] = experiment: DNA methylation at the Oct4 promoter during chemical reprogramming
Description: Genomic DNA was modified by bisulfite treatment and purified using the MethylCode™ Bisulfite Conversion Kit (Invitrogen) according to the manufacturer's protocol. The amplified fragments were cloned into the pEASY-blunt Vector (Transgene). Ten randomly picked clones from each sample were sequenced.
(§1) The function of DZNep in inducing CiPSCs could not be replaced by down-regulating Ezh2 expression (FIGS. 14C-E). GFP+/ES-like colonies in the primary culture, unlike other colonies, express high mRNA level of Nanog and low level of Gata6, resembling ESCs and the established CiPSCs (data not shown). As master pluripotency genes, Oct4 and Sox2 may thereby activate other pluripotency-related genes and fulfill the chemical reprogramming process, along with the activation of Nanog and the silencing of Gata6, in the presence of 2i (Silva, et al., PLoS Biol. 6:e253 (2008), Theunissen, et al., Curr. Biol., 21:65-71 (2011). Boyer, et al., Cell, 122:947-956(2005); Chazaud, at al., Dev. Cell, 10:615-624 (2006)).

[3] = system: concentration ratio of SAH to SAM; experiment: SAH and SAM quantification by HPLC
Method: (§2) cAMP was quantified using the Direct cAMP ELISA Kit (Enzo) according to the manufacturer's protocol. For SAM and SAH quantification, cultured cells (1,000,000 cells) were trypsinized and homogenized by ultrasonication in 200 μl PBS. Then 40 μl of 400 mg/ml TCA was added. Cell extracts were incubated on ice for 30 min. After centrifugation at 4° C. (13,000 rpm, 15 min), the supernatants were filtered through a 0.22 μm filter and analyzed by high-performance liquid chromatography (HPLC, Shimadzu) with HILIC columns (Waters).
Next, the role of DZNep, which was added in the late phase of chemical reprogramming was investigated. […] As an SAH hydrolase inhibitor, DZNep elevates the concentration ratio of SAH to S-adenosylmethionine (SAM) and may thereby repress the SAM-dependent cellular methylation process (FIG. 14A).

Oct4 promoter [4] = experiment: Chromatin immunoprecipitation, H3K9 methylation at the Oct4 promoter
Method: ChIP was performed using the EZ-Magna ChIP A/G Kit (Millipore) according to the manufacturer's protocol. Anti-H3K27me3 (Abcam, ab6002), anti-H3K9me2 (Millipore, 07-441), anti-H3K4me3 (Abcam, ab8580) and anti-H3K9ac (Abcam, ab4441) antibodies were used. Following immunoprecipitation, DNA was analyzed by real-time PCR.
as §1

[5] = system: pluripotency-related genes; experiment: Gene expression during chemical reprogramming (real-time PCR, RNA-seq); conditions: for activation of endogenous expression of Sall4 and Sox2: withdrawal from VC6TF, after 12 days
cAMP level in MEF = experiment: Intracellular cAMP quantification (Direct cAMP ELISA); conditions: FSK 10 μM, versus DMSO control
Method: as §2
The effect of inhibiting adenylate cyclase on the number of colonies generated by VC6TFZ was tested. […] The effect of replacing FSK with the cAMP analog (DBcAMP), alone or in combination with phosphodiesterase inhibitors, IBMX, or the phosphodiesterase inhibitor, rolipram and IBMX, on cell reprogramming was also tested. Both DBcAMP and IBMX were used at 50 μM in the combination treatment.

MEFs from OG mice [6] = experiment: Screen for chemical substitutes of Oct4 in OG-MEFs infected with Sox2, Klf4 and c-Myc; conditions: OG-MEFs with viral expression of Sox2, Klf4 and c-Myc
Method: To identify chemical substitutes of Oct4, MEFs from OG mice were plated at a density of 20,000 cells per well of a 12-well plate and infected with lentiviruses encoding Sox2, Klf4 and c-Myc. After infection, the medium was replaced with LIF-free ESC culture medium. Individual chemicals from small-molecule libraries were added to each well. The medium and chemicals were changed every 4 days. Chemical treatments were continued for 14-20 days or until GFP-positive colonies appeared. Primary hits were selected for further confirmation and optimization.
Small molecules that enable reprogramming in the absence of Oct4 were searched using Oct4 promoter-driven green fluorescent protein (GFP) expression (OG) mouse embryonic fibroblasts (MEFs), with viral expression of Sox2, Klf4, and c-Myc.

**Q.** Which “hit facilitating late reprogramming” value (MEFs from OG mice [1]) does the source give for `CCCCC[C@H](O)/C=C/[C@H]1[C@H](O)CC(=O)[C@@H]1C/C=C\CCCC(=O)O` [Prostaglandin E2] here?
**A.** identified in this screen

**Q.** How did the “replacement of DZNep in CiPSC generation” value (MEFs) turn out when `Nc1ncnc2c1ncn2[C@@H]1C=C(CO)[C@@H](O)[C@H]1O` [NEPA, (−)Neplanocin A] was run?
**A.** useful in replacing DZNep in reprogramming

**Q.** How did the “DNA methylation at the Oct4 promoter” value (Oct4 promoter [2]) turn out when `Nc1nccc2c1ncn2[C@@H]1C=C(CO)[C@@H](O)[C@H]1O` [DZNep, 3-deazaneplanocin A] was run?
**A.** significantly decreased

**Q.** What about the “concentration ratio of SAH to S-adenosylmethionine (SAM)” value [3] of the same compound?
**A.** elevates

**Q.** And the “H3K9 methylation at the Oct4 promoter” value (Oct4 promoter [4])?
**A.** significantly decreased

**Q.** And the “hit facilitating late reprogramming” value (MEFs from OG mice [1])?
**A.** identified in this screen

**Q.** And the Oct4 expression ([5]; after addition of DZNep in chemical reprogramming)?
**A.** enhanced significantly

**Q.** With `Nc1nccc2c1ncn2C1OC(CO)C(O)C1O` (centres unmarked) [DZA, 3-Deamadenoxine] as the compound, how does the “replacement of DZNep in CiPSC generation” value (MEFs) read?
**A.** useful in replacing DZNep in reprogramming

**Q.** `Nc1ncnc2c1ncn2C(C=O)OC(C=O)CO` (centres unmarked) [ADOX, Adenosine periodate oxidized] was tested. Which “replacement of DZNep in CiPSC generation” value (MEFs) did it give?
**A.** useful in replacing DZNep in reprogramming

**Q.** `C/C(=C\c1ccc(C(=O)O)cc1)c1ccc2c(c1)C(C)(C)CCC2(C)C` [TTNPB, 4-[(E)-2-(5,6,7,8-Tetrahydro-5,5,8,8-tetramethyl-2-naphthalenyl)-1-propenyl]benzoic acid] was tested. Which “enhancement of chemical reprogramming efficiency, factor” value (MEFs; booster added to chemical reprogramming in MEFs) did it give?
**A.** ≤ 40

**Q.** And the chemical reprogramming frequency (MEFs; with booster TTNPB)?
**A.** up to 0.2%

**Q.** What does the source list for `C=C[C@@]1(C)CC(=O)[C@]2(O)[C@@]3(C)[C@@H](O)CCC(C)(C)[C@@H]3[C@H](O)[C@H](OC(C)=O)[C@@]2(C)O1` [Forskolin]?
**A.** cAMP level (cAMP level in MEF): significantly elevates; hit facilitating late reprogramming (MEFs from OG mice [1]): identified in this screen; activation of endogenous expression of Sall4 and Sox2 [5]: essential in activating; reprogramming in the absence of Oct4 (chemical substitute for Oct4) (MEFs from OG mice [6]): identified as chemical “substitutes” for Oct4

**Q.** For `Nc1ncn([C@@H]2O[C@H](CO)[C@@H](O)[C@H]2O)c(=O)n1` [5-Azacytidine], which “hit facilitating late reprogramming” value (MEFs from OG mice [1]) is on record?
**A.** identified in this screen

**Q.** For “bFGF: recombinant basic fibroblast growth factor”, which “requirement in inducing CiPSCs” value (MEFs; FIG. 5G) is on record?
**A.** necessary in inducing CiPSCs

**Q.** `CCCC(=O)[O-].[Na+]` [sodium butyrate, Sodiumbutyane] was tested. Which “hit facilitating late reprogramming” value (MEFs from OG mice [1]) did it give?
**A.** identified in this screen

**Q.** For `Cc1cccc(-c2n[nH]cc2-c2ccc3ncccc3n2)n1` [compound 616452, 2-(3-(6-Methylpyridin-2-yl)-1H-pyrazol-4-yl)-1,5-naphthyridine], which “activation of endogenous expression of Sall4 and Sox2” value [5] is on record?
**A.** essential in activating

**Q.** With `Cc1cnc(-c2cnc(NCCNc3ccc(C#N)cn3)nc2-c2ccc(Cl)cc2Cl)[nH]1` [CHIR99021, 6-[[2-[[4-(2,4-Dichlorophenyl)-5-(5-methyl-1H-imidazol-2-yl)-2-pyrimidinyl]amino]ethyl]amino]-3-pyridinecarbonitrile] as the compound, how does the “activation of endogenous expression of Sall4 and Sox2” value [5] read?
**A.** essential in activating

**Q.** `NC(=O)c1ccc(-c2nc(-c3ccc4c(c3)OCCO4)c(-c3ccccn3)[nH]2)cc1` [D4476] was tested. Which “reprogramming in the absence of Oct4 (chemical substitute for Oct4)” value (MEFs from OG mice [6]) did it give?
**A.** identified as chemical “substitutes” for Oct4

**Q.** For `COc1ccc(C2CNC(=O)C2)cc1OC1CCCC1` (centres unmarked) [Rolipram], which “hit facilitating late reprogramming” value (MEFs from OG mice [1]) is on record?
**A.** identified in this screen

**Q.** Which “reprogramming in the absence of Oct4 (chemical substitute for Oct4)” value (MEFs from OG mice [6]) does the source give for `Cc1[nH]c2ccc(O)cc2c1CCN` [2-Me-5HT, 2-Methyl-5-hydroxytryptamine hydrocholoride] here?
**A.** identified as chemical “substitutes” for Oct4

From patent US9982237B2, “Compositions and methods for reprograming non-pluripotent cells into pluripotent stem cells” (Hong Guan Ltd., priority 2013, dated 2018)
